{
  "source": "patent US8268856B2",
  "about": "“Method to use compositions having antidepressant anxiolytic and other neurological activity and compositions of matter” (priority 2007, dated 2012)",
  "key": {"[1]": {"test_system": "Mycobacterium tuberculosis", "experiment": "Activity against Mycobacterium tuberculosis"}, "serotonin receptors": {"test_system": "serotonin receptors", "experiment": "Affinity to serotonin receptors (receptor binding panel)", "set-up": "species or system human or rodent", "protocol": "Evaluation of binding affinity of isolated compounds to serotonin receptors. In vitro testing of isolated compounds was completed using a small panel of receptor binding assays and then validated in a comprehensive panel by the NIMH Psychoactive Drug Screening Program. Pharmacological and functional screening of isolated molecules was performed on cloned human or rodent CNS receptors, channels, and transporters. Hu, J-F., et al. New Antiinfective and Human 5-HT2 Receptor Binding Natural and Semisynthetic Compounds from the Jamaican Sponge Smenospongia aurea. 65 Jour. of Nat. Prod. 476-80 (2002).\n(§1) Porsolt R D, et al. Behavioral Despair In Mice: A Primary Screening Test for Antidepressants, 229 Arch. Int. Pharmacodyn. 327-36 (1977). […] In order to control for false positives, as has been previously observed with psychostimulants, Cryan, J., et al. Assessing Substrates Underlying The Behavioral Effects Of Antidepressants Using The Modified Rat Forced Swimming Test. 29 Neurosci Biobehav Rev. 547-69 (2005) locomotor activity of the animals was monitored using an automated photobeam activity monitoring system. Lucki. I. The Forced Swimming Test As A Model For Core And Component Behavioral Effects Of Antidepressant Drugs. 8 Behav. Pharmacol. 522-32 (1997)."}, "male Swiss Webster mice [2]": {"test_system": "male Swiss Webster mice", "experiment": "Locomotor activity test, Swiss Webster mice", "format": "in vivo, mouse", "details": "IP, photobeam interruptions, versus vehicle", "protocol": "(§2) Locomotor Activity and the FST. To evaluate the isolated compounds for antidepressant-like activity, male Swiss Webster mice (Harlan, Indianapolis, Ind.) (25-30 g weight) were used. Animals were housed in groups of five with a 12 h light/12 h dark cycle. Food and water were provided at libitum. All procedures involving animals were performed as approved by the Institutional Animal Care and Use Committee of the University of Mississippi. Animals were randomly divided into groups (n=6-10/group). Each group was injected IP with either the compound (1-20 mg/kg), desipramine (20 mg/kg), or vehicle (saline, 10% ethanol or 10% ethanol/1% DMSO). Following injection, locomotor activity was monitored using an automated activity monitoring system (San Diego Instruments, San Diego, Calif.). Each mouse was placed in a Plexiglas enclosure and locomotor activity was recorded as the number of photobeam interruptions for 30 min after drug injection. The activity for the last ten min was quantified and analyzed. Immediately at the end of the locomotor session, individual mice were subjected to the FST. The mice were individually placed in a clear plastic cylinder (23 cm high, 10 cm internal diameter) filled with deionized water (8 cm high) at 25° C. The mice were recorded with a video camera (positioned at about 30 cm above the cylinder) for a total of 6 min. The total period of immobility during the last 4 min was timed by three independent observers. The mean immobility time was then calculated. A mouse was judged to be immobile when it remained afloat, making only minimal movements to keep its head above water.\nEffect of select compounds on locomotor activity. Since reductions in immobility time is the primary criterion to assess antidepressant like activity in both the FST and TST, it is crucial to confirm that the effects observed in both tests are not attributed to specific stimulant action of the tested compounds, which would be reflected as enhancement of the locomotor activity. Accordingly, the effect of tested compounds on locomotor activity was evaluated using an automated activity monitoring system."}, "HCV": {"test_system": "HCV", "experiment": "Activity against HCV"}, "HIV-1": {"test_system": "HIV-1", "experiment": "Activity against HIV-1"}, "male Swiss Webster mice [3]": {"test_system": "male Swiss Webster mice", "experiment": "Porsolt forced swim test (FST)", "format": "in vivo, mouse", "details": "male Swiss Webster mice, IP, immobility during last 4 min of 6 min swim, versus vehicle", "protocol": "as §2\nFor the FST, immobility times of the three independent rates were averaged for each mouse and data were analyzed using one way analysis of variance (ANOVA) followed by Bonferroni Multiple comparison posthoc tests to determine statistical differences from the corresponding vehicle control. Chick distress vocalization data were analyzed by two-way repeated measures ANOVA, one-way ANOVA and simple effects analyses with post-hoc comparisons conducted using Fisher's LSD test. p-Values less than 0.05 were considered statistically significant.\nas §1"}},
  "data": [
    {"smiles": "Cc1nccc2c1C(C)(C)Nc1cc(Br)ccc1-2", "note": "[Veranamine, 8-bromo-4,5,5-trimethyl-5,6-dihydrobenzo[c][2,7]naphthyridine]", "values": [
      {"measurement": "activity against Mycobacterium tuberculosis", "setting": "[1]", "result": "not active"},
      {"measurement": "affinities to serotonin receptors", "setting": "serotonin receptors", "result": "moderate affinities"},
      {"measurement": "effect on locomotor activity", "setting": "male Swiss Webster mice [2]", "result": "not the consequence of its stimulant activity"},
      {"measurement": "activity against HCV", "setting": "HCV", "result": "not active"},
      {"measurement": "activity against HIV-1", "setting": "HIV-1", "result": "not active"},
      {"measurement": "antidepressant-like activity / effect on immobility time in FST", "setting": "male Swiss Webster mice [3]", "result": "potent antidepressant activity at the dose of 20 mg/kg"}
    ]}
  ]
}
